One series relates to MCF7 (Breast). The experiment in a line: Cytotoxic activity in vitro, percent net growth (SRB/MTT). The series is classed as cell-based. The following applies: MCF7, 48 hours. The procedure: (§1) These cell lines are used by the National Cancer Institute: Developmental Therapeutics Branch in their preliminary screening process for antineoplastic agents. Subsequently, Amonafide Malate was tested against a larger panel of breast, lung and colon cell lines
(§2) Cells were grown in RPMI 1640 medium containing 5% fetal bovine serum and 2 mM L-glutamine. Dependent upon cell doubling time, between 5,000 and 40,000 cells were inoculated into 96 well microtiter plates in a volume of 100 uL per well. The plates were incubated at 37° C., 5% CO2, 95% air, and 100% relative humidity for 24 hours prior to the addition of the experimental drug. After the, 24 hour incubation, two (2) plates of each cell line were fixed in situ with trichloroacetic acid (TCA) to establish the cell population at time of drug addition (Tz).
(§3) Prior to use, the experimental drugs were solubilized in dimethyl sulfoxide at 400-fold the desired final maximum test concentration and frozen. At time of drug addition, an aliquot of frozen concentrate was thawed and diluted to twice the desired final maximum test concentration with complete medium containing 50 ug/ml gentamicin. An additional four (4) 10-fold or ½ log serial dilutions was made for a total of five (5) drug concentrations plus a control. An aliquot of 100 ul of each drug dilution was added to the appropriate well that already contains 100 ul of medium containing the cells. The plates were then incubated for 48 hours at 37° C., 5% CO2; 95% air and 100% relative humidity.
(§4) The number of viable cells was estimated by either a SRB or MTT calorimetric assays.
(§5) For SRB assay, cells were fixed in situ by the gentle addition of 50 ul cold (w/v) TCA (final concentration, 10% TCA) and incubated for 60 minutes at 4° C. The supernatant was discarded, plates washed five (5) times with tap water and air dried. Then Sulforhodamine B (SRB) solution (100 μl) at a 0.4% (w.v.) in 1% acetic acid was added to each well, and the plates incubated for 10 minutes at room temperature. Unbound dye was removed by washing five (5) times with 1% acetic acid and the plates were air dried. The bound stain was solubilized with 10 mM trizma base and the absorbance was read on an automated plate reader at a wavelength of 515 nm.
(§6) The MTT assay measures the ability of viable cells to reduce a tetrazolium salt (MTT) to an insoluble form, a formazan salt. For MTT analysis 20 μl of MTT solution (5 mg/ml in PBS) was added to each well containing cells. The plate was incubated at 37° C. for 5 hours. Media was removed with needle and syringe. 200 μl of DMSO was added to each well and pipetted up and down to dissolve crystals. Plate was placed into a 37° C. incubator for 5 minutes to dissolve air bubbles. Absorbance was read on an automated plate reader at a wavelength of 550 nm.
(§7) Percent net growth inhibition, as shown in FIGS. 2-7, was calculated using the seven absorbance measurements: absorbance by cells at time zero (Tz), absorbance by cells grown in the absence of drug (C), and absorbance of cells grown at the five drug concentrations (Ti). The following expression was used: % Net Growth=[(Ti−Tz)/(C−Tz)]×100 if Ti was greater than or equal to Tz. % Net Growth=[(Ti−Tz)/Tz]×100 if Ti was less than Tz.
(§8) Using the plot of Percent Net Growth as a function of drug concentration, lethality concentration “50%” (LC50), total growth inhibition (TGI) and growth inhibition “50%” (GI50) were determined as follows.

Series [1] has as its system H460 (Non-Small Cell Lung Cancer). Described as above. The series is classed as cell-based. The following applies: H460, 48 hours. The procedure:
as §1, §2, §3, §4, §5, §6, §7, §8

A further series concerns SF268 (Glioma). The description is as above. The class given is cell-based. The following applies: SF268, 48 hours. As to the method: as §1, §2, §3, §4, §5, §6, §7, §8
The nature of series [2]: Daily body weight and general health monitoring during the hollow fiber study. The series is classed as in vivo. As to conditions: mice, monitored daily for 6 days, i.p. dosing. The procedure: Individual mouse body weights were recorded daily and animals were monitored daily for general health for 6 days.
[3] abbreviates: Percent Net Growth -50%, read-out: LC50 (the source's name).

Molecules are shown by their SMILES.

Consider `CN(C)CCN1C(=O)c2cccc3cc(N)cc(c23)C1=O.O=C(O)C[C@H](O)C(=O)O` [Amonafide Malate], for which the TGI in the series with MCF7 (Breast) (Percent Net Growth 0%) was found to be 110 µM; in series [1] (Percent Net Growth 0%), 96 µM; in the series with SF268 (Glioma) (Percent Net Growth 0%), 154 µM. Besides, the GI50 in the series on MCF7 (Breast) (Percent Net Growth 50%) was 5.16 µM; in series [1] (Percent Net Growth 50%) it was 4.11 µM; with SF268 (Glioma) (Percent Net Growth 50%) it was 7.7 µM. The figures for the CC50 (in the series on MCF7 (Breast) (setting [3]); in series [1] (setting [3])) were 662 µM and 170 µM, respectively. The “premature sacrifice for body weight loss of greater than 20% or other signs of toxicity” value in series [2] is reported as “not necessary to sacrifice any animals”.
